Test results taken from patent US20090192167A1 (priority 2005, published 2009).
Like-named read-outs stand apart in the source and are kept apart here.

Columns and labels:
Pyricularia oryzae [1] = type: in vivo; conditions: granule, nursery box, inoculated 30 days after treatment, lesions examined after 7 days
Pyricularia oryzae [2] = type: in vivo; conditions: granule, submerged application, inoculated 14 days after treatment, lesions examined after 7 days
Chilo suppressalis [3] = conditions: in vivo
Pyricularia oryzae [4] = type: in vivo; conditions: inoculated 1 day after spraying, lesions counted after 7 days
Chilo suppressalis [5] = conditions: in vivo; remark: listed apart in the source
Chilo suppressalis [6] = conditions: in vivo; remark: listed apart in the source
[7] = amount of treated chemical 100 gai/box
[8] = amount of treated chemical 150 gai/box
[9] = amount of treated chemical 60 gai/box

Cc1cc(C(F)(C(F)(F)F)C(F)(F)F)cc(C)c1NC(=O)c1cccc(NC(=O)c2cccnc2Cl)c1 [Compound 106, N-(2,6-dimethyl-4-heptafluoroisopropyl)phenyl 3-[(2-chloropyridine-3-yl)carbonylamino]benzamide]
Pyricularia oryzae Control value (Pyricularia oryzae [1]; 5 gai/box): 4 | Pyricularia oryzae Control value (Pyricularia oryzae [2]; 300 (gai/box)): 3

O=C(Nc1cccc(C(=O)Nc2c(Br)cc(C(F)(C(F)(F)F)C(F)(F)F)cc2SC(F)(F)F)c1)c1ccccc1 [Compound 210]
Mortality (%) (Chilo suppressalis [3]): 95% | Pyricularia oryzae Control value (Pyricularia oryzae [4]; [7]): 0

Cc1cc(C(F)(C(F)(F)F)C(F)(F)F)cc(C)c1NC(=O)c1cccc(NC(=O)c2ccccc2)c1F [Compound 601, N-(2,6-dimethyl-4-heptafluoroisopropyl)phenyl 3-(benzoylamino)-2-fluorobenzamide]
Mortality (%) (Chilo suppressalis [3]): 95% | Pyricularia oryzae Control value (Pyricularia oryzae [4]; [7]): 2

Cc1cc(C(F)(C(F)(F)F)C(F)(F)F)cc(C)c1NC(=O)c1cccc(NC(=O)c2cccnc2Cl)c1F [Compound 639]
Pyricularia oryzae Control value (Pyricularia oryzae [1]; 5 gai/box): 5 | Pyricularia oryzae Control value (Pyricularia oryzae [2]; 300 (gai/box)): 0

Cc1cc(C(F)(C(F)(F)F)C(F)(F)F)cc(C)c1NC(=O)c1cccc(N(C)C(=O)c2ccccc2)c1F [Compound 1208]
Mortality (%) (Chilo suppressalis [3]): 95% | Pyricularia oryzae Control value (Pyricularia oryzae [4]; [7]): 5

Cc1cc(C(F)(C(F)(F)F)C(F)(F)F)cc(C)c1NC(=O)c1cccc(N(C)C(=O)c2ccc(C#N)cc2)c1F [Compound 1217]
Mortality (%) (Chilo suppressalis [5]): 95% | Pyricularia oryzae Control value (Pyricularia oryzae [1]; 5 gai/box): 0 | Pyricularia oryzae Control value (Pyricularia oryzae [2]; 300 (gai/box)): 5 | Mortality (%) (Chilo suppressalis [6]): 95%

Cc1cc(C(F)(C(F)(F)F)C(F)(F)F)cc(C)c1NC(=O)c1cccc(N(C)C(=O)c2cccnc2Cl)c1F [Compound 1245]
Pyricularia oryzae Control value (Pyricularia oryzae [1]; 5 gai/box): 5 | Pyricularia oryzae Control value (Pyricularia oryzae [2]; 300 (gai/box)): 0

Cc1cc(C(F)(C(F)(F)F)C(F)(F)F)cc(C)c1NC(=O)c1cccc(N(C)C(=O)c2cccnc2F)c1F [Compound 1246]
Pyricularia oryzae Control value (Pyricularia oryzae [1]; 5 gai/box): 0 | Pyricularia oryzae Control value (Pyricularia oryzae [2]; 300 (gai/box)): 4

Cc1cc(C(F)(C(F)(F)F)C(F)(F)F)cc(C)c1NC(=O)c1cccc(NC(=O)OCC(F)(F)F)c1F [Compound 3000]
Mortality (%) (Chilo suppressalis [3]): 90% | Pyricularia oryzae Control value (Pyricularia oryzae [4]; [7]): 3

Cc1cc(C(F)(C(F)(F)F)C(F)(F)F)cc(C)c1NC(=O)c1cccc(NC(=O)OC(CF)CF)c1 [Compound 3001]
Mortality (%) (Chilo suppressalis [3]): 95% | Pyricularia oryzae Control value (Pyricularia oryzae [4]; [7]): 0

Cc1cc(C(F)(C(F)(F)F)C(F)(F)F)cc(C)c1NC(=O)c1cccc(NC(=O)OCCCl)c1F [Compound 3002]
Mortality (%) (Chilo suppressalis [3]): 90% | Pyricularia oryzae Control value (Pyricularia oryzae [4]; [7]): 3

Cc1ccc(C(=O)NCC(NC(=O)OC(C)C)C(C)C)cc1 (stereo not shown) [Compound 3003]
Mortality (%) (Chilo suppressalis [5]): 0% | Pyricularia oryzae Control value (Pyricularia oryzae [1]; 15 gai/box): 100 | Pyricularia oryzae Control value (Pyricularia oryzae [2]; 450 (gai/box)): 100 | Mortality (%) (Chilo suppressalis [3]): 0% | Pyricularia oryzae Control value (Pyricularia oryzae [4]; [8]): 100 | Mortality (%) (Chilo suppressalis [6]): 0%

Cc1ccc(C(=O)NCC(NC(=O)OC(C)C)C(C)(C)C)cc1 (stereo not shown) [Compound 3004]
Mortality (%) (Chilo suppressalis [5]): 0% | Pyricularia oryzae Control value (Pyricularia oryzae [1]; 15 gai/box): 100 | Pyricularia oryzae Control value (Pyricularia oryzae [2]; 450 (gai/box)): 100 | Mortality (%) (Chilo suppressalis [3]): 0% | Pyricularia oryzae Control value (Pyricularia oryzae [4]; [8]): 100 | Mortality (%) (Chilo suppressalis [6]): 0%

CC(C)OC(=O)NC(CNC(=O)c1cc2ccccc2o1)C(C)C (stereo not shown) [Compound 3005]
Mortality (%) (Chilo suppressalis [5]): 0% | Pyricularia oryzae Control value (Pyricularia oryzae [1]; 15 gai/box): 100 | Pyricularia oryzae Control value (Pyricularia oryzae [2]; 450 (gai/box)): 100 | Mortality (%) (Chilo suppressalis [3]): 0% | Pyricularia oryzae Control value (Pyricularia oryzae [4]; [8]): 100 | Mortality (%) (Chilo suppressalis [6]): 0%

Cc1ccc(C(=O)NCC(NC(=O)OCC(F)(F)F)C(C)C)cc1 (stereo not shown) [Compound 3006]
Mortality (%) (Chilo suppressalis [5]): 0% | Pyricularia oryzae Control value (Pyricularia oryzae [1]; 7.5 gai/box): 100 | Pyricularia oryzae Control value (Pyricularia oryzae [2]; 225 (gai/box)): 100 | Mortality (%) (Chilo suppressalis [3]): 0% | Pyricularia oryzae Control value (Pyricularia oryzae [4]; [9]): 100 | Mortality (%) (Chilo suppressalis [6]): 0%

Cc1ccc(C(=O)NCC(NC(=O)OCC(F)(F)F)C(C)(C)C)cc1 (stereo not shown) [Compound 3007]
Pyricularia oryzae Control value (Pyricularia oryzae [1]; 7.5 gai/box): 100 | Pyricularia oryzae Control value (Pyricularia oryzae [2]; 225 (gai/box)): 100 | Mortality (%) (Chilo suppressalis [3]): 5% | Pyricularia oryzae Control value (Pyricularia oryzae [4]; [9]): 100

CC(C)C(CNC(=O)c1cc2ccccc2o1)NC(=O)OCC(F)(F)F (stereo not shown) [Compound 3008]
Mortality (%) (Chilo suppressalis [5]): 0% | Pyricularia oryzae Control value (Pyricularia oryzae [1]; 7.5 gai/box): 100 | Pyricularia oryzae Control value (Pyricularia oryzae [2]; 225 (gai/box)): 100 | Mortality (%) (Chilo suppressalis [3]): 0% | Pyricularia oryzae Control value (Pyricularia oryzae [4]; [9]): 100 | Mortality (%) (Chilo suppressalis [6]): 0%
